target: P2X7 receptor (Homo sapiens (Human), UniProt Q99572); assay: P2X7 FLIPR assay: antagonism of BzATP response in 293 HEK cells stably expressing P2X7 receptor; format: cell-based; details: FLIPR fluorescence (Fluo-4), agonist BzATP, 293 HEK cells stably transfected with P2X7 receptor
How it was run: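 Antagonist IC50 derived from FLIPR Tetra Fluo-4 calcium signal evoked by BzATP. Compound pre-incubation was 30 min at room temperature on P2X7-expressing HEK293 cells, seeded 24 h before in low-serum medium and dye-loaded 30 min at 37 °C then 30 min at RT.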

Sequence of P2X7 receptor (Q99572 whole entry): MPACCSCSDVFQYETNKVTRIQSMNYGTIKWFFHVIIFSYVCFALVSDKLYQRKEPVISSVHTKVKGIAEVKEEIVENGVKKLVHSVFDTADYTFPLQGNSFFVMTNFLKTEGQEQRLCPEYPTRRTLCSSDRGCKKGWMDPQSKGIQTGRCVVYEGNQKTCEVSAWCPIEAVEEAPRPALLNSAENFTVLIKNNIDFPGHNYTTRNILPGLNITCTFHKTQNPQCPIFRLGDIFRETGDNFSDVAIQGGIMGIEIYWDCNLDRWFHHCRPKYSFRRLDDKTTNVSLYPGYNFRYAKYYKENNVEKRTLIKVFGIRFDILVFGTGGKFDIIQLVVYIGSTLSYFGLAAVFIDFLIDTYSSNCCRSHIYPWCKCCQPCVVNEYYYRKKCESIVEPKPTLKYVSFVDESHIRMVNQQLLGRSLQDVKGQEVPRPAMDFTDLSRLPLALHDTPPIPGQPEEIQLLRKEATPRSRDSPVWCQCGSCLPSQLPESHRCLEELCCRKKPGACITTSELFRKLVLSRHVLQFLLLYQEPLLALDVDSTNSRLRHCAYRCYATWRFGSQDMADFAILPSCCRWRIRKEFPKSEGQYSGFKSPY

Row | IC50 [nM] | SMILES
1 | 8.2 | O=C(NCC(c1cnc(C(F)(F)F)nc1)N1CCC(F)(F)CC1)c1c(F)cccc1Cl (single isomer, unassigned; (-)) [(−)2-chloro-N-[2-(4,4-difluoro-1-piperidyl)-2-[2-(trifluorom] [(−)2-chloro-6-fluoro-N-(2-(4,4-difluoropiperidin-1-yl)-2-(trifluoromethyl)pyrimidin-5-yl)ethyl)benzamide]
2 | 4.2 | O=C(NCC(c1cnc(C(F)(F)F)nc1)N1CCC(F)(F)CC1)c1cccc(F)c1Cl (single isomer, unassigned; (-)) [(−)2-chloro-N-[2-(4,4-difluoro-1-piperidyl)-2-[2-(trifluorom] [(−)2-chloro-N-(2-(4,4-difluoropiperidin-1-yl)-2-(2-(trifluoromethyl)pyrimidin-5-yl)ethyl)-3-fluorobenzamide]
3 | 4.8 | COc1cccc(C(=O)NCC(c2cnc(C(F)(F)F)nc2)N2CCC(F)(F)CC2)c1Cl (single isomer, unassigned; (-)) [(−)2-chloro-N-[2-(4,4-difluoro-1-piperidyl)-2-[2-(trifluorom] [(−)2-chloro-N-(2-(4,4-difluoropiperidin-1-yl)-2-(2-(trifluoromethyl)pyrimidin-5-yl)ethyl)-3-methoxybenzamide]
4 | 31 | COc1ccc(F)c(C(=O)NCC(c2cnc(C(F)(F)F)nc2)N2CCC(F)(F)CC2)c1Cl (single isomer, unassigned; (-)) [(−)2-chloro-N-[2-(4,4-difluoro-1-piperidyl)-2-[2-(trifluorom] [(−)2-chloro-N-(2-(4,4-difluoropiperidin-1-yl)-2-(2-(trifluoromethyl)pyrimidin-5-yl)ethyl)-6-fluoro-3-methoxybenzamide]
5 | 5.7 | O=C(NCC(c1ccc(C(F)(F)F)nc1)N1CCC(F)(F)CC1)c1cccc(F)c1Cl (single isomer, unassigned; (-)) [(−)2-chloro-N-[2-(4,4-difluoro-1-piperidyl)-2-[6-(trifluorom] [(−)2-chloro-N-(2-(4,4-difluoropiperidin-1-yl)-2-(2-(trifluoromethyl)pyridin-5-yl)ethyl)-3-fluorobenzamide]
6 | 1.5 | COc1cccc(C(=O)NCC(c2ccc(Cl)cc2)N2CCOCC2)c1Cl (single isomer, unassigned; (-)) [(−)2-chloro-N-[2-(4-chlorophenyl)-2-morpholino-ethyl]-3-meth] [(−)2-chloro-N-(2-(4-chlorophenyl)-2-morpholinoethyl)-3-methoxybenzamide]
7 | 110 | N#Cc1ccc(Cl)c(C(=O)NCC(c2ccc(Cl)cc2)N2CCOCC2)c1 (single isomer, unassigned; (-)) [(−)2-chloro-N-[2-(4-chlorophenyl)-2-morpholino-ethyl]-5-cyan] [(−)2-chloro-N-(2-(4-chlorophenyl)-2-morpholinoethyl)-5-cyanobenzamide]
8 | 65 | CS(=O)(=O)c1ccc(Cl)c(C(=O)NCC(c2ccc(Cl)cc2)N2CCOCC2)c1 (single isomer, unassigned; (-)) [(−)2-chloro-N-[2-(4-chlorophenyl)-2-morpholino-ethyl]-5-meth] [(−)2-chloro-N-(2-(4-chlorophenyl)-2-morpholinoethyl)-5-(methylsulfonyl)benzamide]
9 | 45 | Cc1ncc(C(CNC(=O)c2ccccc2Cl)N2CCC(F)CC2)cn1 (single isomer, unassigned; (-)) [(−)2-chloro-N-[2-(4-fluoro-1-piperidyl)-2-(2-methylpyrimidin] [(−)2-chloro-N-(2-(4-fluoropiperidin-1-yl)-2-(2-methylpyrimidin-5-yl)ethyl)benzamide]
10 | 13 | O=C(NCC(c1cnc(C(F)(F)F)nc1)N1CCC(F)CC1)c1ccccc1Cl (single isomer, unassigned; (-)) [(−)2-chloro-N-[2-(4-fluoro-1-piperidyl)-2-[2-(trifluoromethy] [(−)2-chloro-N-(2-(4-fluoropiperidin-1-yl)-2-(2-(trifluoromethyl)pyrimidin-5-yl)ethyl)benzamide]
11 | 38 | O=C(NCC(c1cnc(C(F)F)nc1)N1CCOCC1)c1cccc(F)c1Cl (single isomer, unassigned; (-)) [(−)2-chloro-N-[2-[2-(difluoromethyl)pyrimidin-5-yl]-2-morpho] [(−)2-chloro-3-fluoro-N-(2-(2-(difluoromethyl)pyrimidin-5-yl)-2-morpholinoethyl)benzamide]
12 | 15 | O=C(NCC(c1cnc(C(F)F)nc1)N1CCOCC1)c1ccccc1Cl (single isomer, unassigned; (-)) [(−)2-chloro-N-[2-[2-(difluoromethyl)pyrimidin-5-yl]-2-morpho] [(−)2-chloro-N-(2-(2-(difluoromethyl)pyrimidin-5-yl)-2-morpholinoethyl)benzamide]
13 | 1.9 | COc1cccc(C(=O)NCC(c2ccc(C(F)F)nc2)N2CCC(F)(F)CC2)c1Cl (single isomer, unassigned; (-)) [(−)2-chloro-N-[2-[6-(difluoromethyl)-3-pyridyl]-2-(4,4-diflu] [(−)2-chloro-3-methoxy-N-(2-(2-(difluoromethyl)pyridin-5-yl)-2-(4,4-difluoropiperidin-1-yl)ethyl)benzamide]
14 | 12 | O=C(NCC(c1ccc(C(F)F)nc1)N1CCC(F)(F)CC1)c1ccccc1Cl (single isomer, unassigned; (-)) [(−)2-chloro-N-[2-[6-(difluoromethyl)-3-pyridyl]-2-(4,4-diflu] [(−)2-chloro-N-(2-(2-(difluoromethyl)pyridin-5-yl)-2-(4,4-difluoropiperidin-1-yl)ethyl)benzamide]
15 | 9.9 | O=C(NCC(c1cnc(C(F)(F)F)nc1)N1CCOCC1)c1cccc(C(F)(F)F)c1Cl (single isomer, unassigned; (-)) [(−)2-chloro-N-[2-morpholino-2-[2-(trifluoromethyl)pyrimidin-] [(−)2-Chloro-N-[2-morpholino-2-[2-(trifluoromethyl)pyrimidin-5-yl]ethyl]-3-(trifluoromethyl)benzamide]
16 | 15 | O=C(NCC(c1cnc(C(F)(F)F)nc1)N1CCOCC1)c1ccccc1Cl (single isomer, unassigned; (-)) [(−)2-chloro-N-[2-morpholino-2-[2-(trifluoromethyl)pyrimidin-] [(−)2-Chloro-N-[2-morpholino-2-[2-(trifluoromethyl)pyrimidin-5-yl]ethyl]benzamide]
17 | 12 | O=C(NCC(c1ccc(C(F)(F)F)nc1)N1CCOCC1)c1cccc(C(F)(F)F)c1Cl (single isomer, unassigned; (-)) [(−)2-chloro-N-[2-morpholino-2-[6-(trifluoromethyl)-3-pyridyl] [(−)2-Chloro-N-[2-morpholino-2-[6-(trifluoromethyl)-3-pyridyl]ethyl]-3-(trifluoromethyl)benzamide]
18 | 21 | COc1ccccc1C(=O)NCC(c1ccc(C(F)(F)F)nc1)N1CCOCC1 (single isomer, unassigned; (-)) [(−)2-methoxy-N-[2-morpholino-2-[6-(trifluoromethyl)-3-pyridy] [(−)2-Methoxy-N-[2-morpholin-4-yl-2-(6-trifluoromethyl-pyridin-3-yl)-ethyl]-benzamide]
19 | 19 | Cc1ncc(C(CNC(=O)c2cccc(Cl)c2Cl)N2CCC(=O)CC2)cn1 (stereo not shown) [2,3-Dichloro-N-(2-(2-methylpyrimidin-5-yl)-2-(4-oxopiperidin-1-yl)ethyl)benzamide]
20 | 1100 | O=C(NCC(c1cccnc1)N1CCOCC1)c1cccc(Cl)c1Cl (stereo not shown) [2,3-Dichloro-N-(2-morpholin-4-yl-2-pyridin-3-yl-ethyl)-benzamide]
21 | 750 | O=C(NCC(c1ccncc1)N1CCOCC1)c1cccc(Cl)c1Cl (stereo not shown) [2,3-Dichloro-N-(2-morpholin-4-yl-2-pyridin-4-yl-ethyl)-benzamide]
22 | 28 | O=C(NCC(c1cncnc1)N1CCOCC1)c1cccc(Cl)c1Cl (stereo not shown) [2,3-Dichloro-N-(2-morpholino-2-pyrimidin-5-yl-ethyl)benzamide]
23 | 0.89 | O=C(NCC(c1ccc(F)nc1)N1CCC(F)(F)CC1)c1cccc(Cl)c1Cl (stereo not shown) [2,3-Dichloro-N-[2-(4,4-difluoro-1-piperidyl)-2-(6-fluoro-3-pyridyl)ethyl]benzamide]
24 | 1.3 | O=C(NCC(c1ccc(C(F)(F)F)nc1)N1CCC(F)(F)CC1)c1cccc(Cl)c1Cl (stereo not shown) [2,3-Dichloro-N-[2-(4,4-difluoro-1-piperidyl)-2-[6-(trifluoromethyl)-3-pyridyl]ethyl]benzamide]
25 | 0.33 | O=C(NCC(c1ccc(F)cc1)N1CCC(F)(F)CC1)c1cccc(Cl)c1Cl (stereo not shown) [2,3-Dichloro-N-[2-(4,4-difluoro-piperidin-1-yl)-2-(4-fluoro-phenyl)-ethyl]-benzamide]
26 | 0.6 | O=C(NCC(c1ccc(Cl)cc1)N1CCOCC1)c1cccc(Cl)c1Cl (stereo not shown) [2,3-Dichloro-N-[2-(4-chloro-phenyl)-2-morpholin-4-yl-ethyl]-benzamide]
27 | 11 | O=C(NCC(c1ccc(F)cc1)N1CCOCC1)c1cccc(Cl)c1Cl (stereo not shown) [2,3-Dichloro-N-[2-(4-fluoro-phenyl)-2-morpholin-4-yl-ethyl]-benzamide]
28 | 13 | COc1ccc(C(CNC(=O)c2cccc(Cl)c2Cl)N2CCOCC2)cc1 (stereo not shown) [2,3-Dichloro-N-[2-(4-methoxy-phenyl)-2-morpholin-4-yl-ethyl]-benzamide]
29 | 350 | COc1ccc(C(CNC(=O)c2cccc(Cl)c2Cl)N2CCCCC2)cc1 (stereo not shown) [2,3-Dichloro-N-[2-(4-methoxy-phenyl)-2-piperidin-1-yl-ethyl]-benzamide]
30 | 3.9 | O=C(NCC(c1ccc(Cl)nc1)N1CCOCC1)c1cccc(Cl)c1Cl (stereo not shown) [2,3-Dichloro-N-[2-(6-chloro-3-pyridyl)-2-morpholino-ethyl]benzamide]

Row | SMILES | IC50 [nM]
31 | O=C(NCC(c1ccc(C(F)(F)F)nc1)N1CCC(F)(F)CC1)c1c(F)cccc1Cl (single isomer, unassigned; (-)) [(−)2-chloro-N-[2-(4,4-difluoro-1-piperidyl)-2-[6-(trifluorom] [(−)2-chloro-6-fluoro-N-(2-(4,4-difluoropiperidin-1-yl)-2-(trifluoromethyl)pyridin-5-yl)ethyl)benzamide] | 3
